# From patent publication US20230250083A1, “CRYSTALS” (NIPPON SHINYAKU CO., LTD., priority 2017, published 2023)
# Key:
# JAK2 tyrosine kinase = JAK2 tyrosine kinase (Homo sapiens, UniProt O60674); settings: see PATENT DOCUMENT 1; cited from earlier work
# [1] = Crystallization experiment, operation procedure 1 (suspension stirred 2 days, cooled and warmed between 4 to 40° C.); assay type: physicochemical; design: key: —: The symbol “-” in Table 1 to Table 3 means that no precipitate was obtained
# Protocol: (§1) Each of various solvents was added to the Form-I crystal of the present invention (several mg), crystals of the compound A were precipitated according to the following operation procedures, and the crystal form of the precipitated crystals was confirmed. The results of the operation procedures 1 to 3 are shown in Table 1 and Table 2, and the results of the operation procedure 4 are shown in Table 3. The symbol “-” in Table 1 to Table 3 means that no precipitate was obtained.
# Each of various solvents (50 μL) was added to the Form-I crystal of the present invention to make a suspension thereof, and the suspension was stirred for 2 days while repeatedly being cooled and warmed between 4 to 40° C.
# [2] = Crystallization experiment, operation procedure 2 (dissolved at 40° C., cooled to 4° C., stirred 3 days); assay type: physicochemical; design: key: —: The symbol “-” in Table 1 to Table 3 means that no precipitate was obtained
# Protocol: as §1
# Each of various solvents (50 μL) was added to the Form-I crystal of the present invention to dissolve the Form-I crystal of the present invention at 40° C. […] The solution was cooled to 4° C. and stirred for 3 days.
# [3] = Crystallization experiment, operation procedure 3 (dissolved at 40° C., solvent gradually distilled off at room temperature); assay type: physicochemical; design: key: —: The symbol “-” in Table 1 to Table 3 means that no precipitate was obtained
# Protocol: as §1
# Each of various solvents (50 μL) was added to the Form-I crystal of the present invention to dissolve the Form-I crystal of the present invention at 40° C. […] The solvent was gradually distilled off at room temperature.
# [4] = Crystallization experiment, operation procedure 4 (saturated solution, poor solvent added); assay type: physicochemical; design: key: —: The symbol “-” in Table 1 to Table 3 means that no precipitate was obtained
# Protocol: Each of various solvents was added to the Form-I crystal of the present invention (several mg), crystals of the compound A were precipitated according to the following operation procedures, and the crystal form of the precipitated crystals was confirmed. The results of the operation procedures 1 to 3 are shown in Table 1 and Table 2, and the results of the operation procedure 4 are shown in Table 3. The symbol “-” in Table 1 to Table 3 means that no precipitate was obtained. Each of various dissolving solvents (minimum volume) was added to the Form-I crystal of the present invention to prepare a saturated solution. Various poor solvents were added thereto.
# [5] = solvent 1,4-dioxane:water 80:20
# [6] = solvent acetonitrile:dimethyl sulfoxide 80:20
# [7] = solvent acetonitrile:water 80:20
# [8] = solvent acetonitrile:water 95:5
# [9] = solvent ethanol:dimethyl sulfoxide 80:20
# [10] = solvent tetrahydrofuran:water 20:80
# [11] = solvent tetrahydrofuran:water 95:5
# Sequence of JAK2 tyrosine kinase (O60674 whole entry): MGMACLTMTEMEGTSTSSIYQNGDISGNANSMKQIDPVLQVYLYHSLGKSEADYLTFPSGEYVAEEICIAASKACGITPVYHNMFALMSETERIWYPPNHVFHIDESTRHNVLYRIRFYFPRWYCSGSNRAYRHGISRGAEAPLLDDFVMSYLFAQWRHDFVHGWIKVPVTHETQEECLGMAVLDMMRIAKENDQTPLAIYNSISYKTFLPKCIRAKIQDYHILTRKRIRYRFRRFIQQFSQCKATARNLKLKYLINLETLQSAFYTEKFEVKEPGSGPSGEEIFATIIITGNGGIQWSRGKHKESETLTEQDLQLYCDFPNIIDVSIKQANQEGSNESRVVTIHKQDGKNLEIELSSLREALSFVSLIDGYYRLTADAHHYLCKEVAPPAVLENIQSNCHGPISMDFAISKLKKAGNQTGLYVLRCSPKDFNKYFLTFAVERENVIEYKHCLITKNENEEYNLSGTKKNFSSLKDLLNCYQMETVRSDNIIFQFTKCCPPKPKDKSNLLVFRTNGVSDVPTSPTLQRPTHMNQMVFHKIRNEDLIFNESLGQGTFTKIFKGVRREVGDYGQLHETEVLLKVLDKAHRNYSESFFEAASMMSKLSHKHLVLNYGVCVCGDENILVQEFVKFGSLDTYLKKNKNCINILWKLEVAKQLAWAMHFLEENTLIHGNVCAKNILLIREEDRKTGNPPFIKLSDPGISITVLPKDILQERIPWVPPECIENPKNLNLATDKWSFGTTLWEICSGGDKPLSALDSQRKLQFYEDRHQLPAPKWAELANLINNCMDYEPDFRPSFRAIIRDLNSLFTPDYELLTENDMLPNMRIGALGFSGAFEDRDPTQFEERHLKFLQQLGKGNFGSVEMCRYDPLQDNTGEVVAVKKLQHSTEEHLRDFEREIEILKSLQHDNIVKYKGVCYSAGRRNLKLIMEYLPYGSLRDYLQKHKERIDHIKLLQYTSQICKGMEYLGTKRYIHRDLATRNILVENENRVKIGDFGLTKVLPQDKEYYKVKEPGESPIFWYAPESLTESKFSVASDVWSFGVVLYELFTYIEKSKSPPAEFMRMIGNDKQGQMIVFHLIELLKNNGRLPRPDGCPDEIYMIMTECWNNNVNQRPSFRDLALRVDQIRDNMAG
compound,measurement,setting,value
"C[C@H](Nc1cc(-c2cnn(C)c2)cc(Nc2cnccn2)n1)c1ccc(F)cc1.O=C(O)/C=C\C(=O)O [compound A, (S)-N^2-[1-(4-fluorophenyl)ethyl]-4-(1-methyl-1H-pyrazol-4-yl)-N^6-(pyrazin-2-yl)pyridine-2,6-diamine maleate]",JAK2 tyrosine kinase inhibitory action,JAK2 tyrosine kinase,excellent JAK2 tyrosine kinase inhibitory action
same,crystal form of the precipitated crystals,"[1]; solvent 1,4-dioxane",Form-I
same,crystal form of the precipitated crystals,[1]; [5],Form-I
same,crystal form of the precipitated crystals,[1]; solvent 1-butanol,Form-I
same,crystal form of the precipitated crystals,[1]; solvent 1-methoxy-2 -propanol,Form-I
same,crystal form of the precipitated crystals,[1]; solvent 1-propanol,Form-I
same,crystal form of the precipitated crystals,[1]; solvent 2-methoxyethanol,Form-I
same,crystal form of the precipitated crystals,[1]; solvent 2-methoxyethyl ether,Form-I
same,crystal form of the precipitated crystals,[1]; solvent 2-propanol,Form-I
same,crystal form of the precipitated crystals,[1]; solvent 2-propanol:water 80:20,Form-I
same,crystal form of the precipitated crystals,[1]; solvent 2-propanol:water 95:5,Form-I
same,crystal form of the precipitated crystals,"[1]; solvent N,N-dimethylformamide",—
same,crystal form of the precipitated crystals,[1]; solvent N-methylpyrrolidone,—
same,crystal form of the precipitated crystals,[1]; solvent acetone,Form-I
same,crystal form of the precipitated crystals,[1]; solvent acetone:water 20:80,Form-I
same,crystal form of the precipitated crystals,[1]; solvent acetone:water 80:20,Form-I
same,crystal form of the precipitated crystals,[1]; solvent acetone:water 95:5,Form-I
same,crystal form of the precipitated crystals,[1]; solvent acetonitrile,Form-I
same,crystal form of the precipitated crystals,[1]; [6],Form-I
same,crystal form of the precipitated crystals,[1]; [7],Form-I
same,crystal form of the precipitated crystals,[1]; [8],Form-I
same,crystal form of the precipitated crystals,[1]; solvent chlorobenzene,Form-I
same,crystal form of the precipitated crystals,[1]; solvent chloroform,Form-I
same,crystal form of the precipitated crystals,[1]; solvent cyclohexane,Form-I
same,crystal form of the precipitated crystals,[1]; solvent cyclohexanone,Form-I
same,crystal form of the precipitated crystals,[1]; solvent dichloromethane,Form-I
same,crystal form of the precipitated crystals,[1]; solvent dimethyl carbonate,Form-I
same,crystal form of the precipitated crystals,[1]; solvent dimethyl sulfoxide,—
same,crystal form of the precipitated crystals,[1]; solvent ethanol,Form-I
same,crystal form of the precipitated crystals,[1]; [9],Form-I
same,crystal form of the precipitated crystals,[1]; solvent ethanol:water 20:80,Form-I
same,crystal form of the precipitated crystals,[1]; solvent ethyl acetate,Form-I
same,crystal form of the precipitated crystals,[1]; solvent heptane,Form-I
same,crystal form of the precipitated crystals,[1]; solvent isopropyl acetate,Form-I
same,crystal form of the precipitated crystals,[1]; solvent isopropyl ether,Form-I
same,crystal form of the precipitated crystals,[1]; solvent methanol,Form-I
same,crystal form of the precipitated crystals,[1]; solvent methanol:water 80:20,Form-I
same,crystal form of the precipitated crystals,[1]; solvent methanol:water 95:5,Form-I
same,crystal form of the precipitated crystals,[1]; solvent methyl acetate,Form-I
same,crystal form of the precipitated crystals,[1]; solvent methyl ethyl ketone,Form-I
same,crystal form of the precipitated crystals,[1]; solvent methyl isobutyl ketone,Form-I
same,crystal form of the precipitated crystals,[1]; solvent nitromethane,Form-I
same,crystal form of the precipitated crystals,[1]; solvent t-butyl methyl ether,Form-I
same,crystal form of the precipitated crystals,[1]; solvent tetrahydrofuran,Form-I
same,crystal form of the precipitated crystals,[1]; [10],Form-I
same,crystal form of the precipitated crystals,[1]; [11],Form-I
same,crystal form of the precipitated crystals,[1]; solvent toluene,Form-I
same,crystal form of the precipitated crystals,[1]; solvent trifluoroethanol,—
same,crystal form of the precipitated crystals,[1]; solvent water,Form-I
same,crystal form of the precipitated crystals,"[2]; solvent 1,4-dioxane",solvate
same,crystal form of the precipitated crystals,[2]; [5],—
same,crystal form of the precipitated crystals,[2]; solvent 1-butanol,—
same,crystal form of the precipitated crystals,[2]; solvent 1-methoxy-2 -propanol,—
same,crystal form of the precipitated crystals,[2]; solvent 1-propanol,Form-I
same,crystal form of the precipitated crystals,[2]; solvent 2-methoxyethanol,—
same,crystal form of the precipitated crystals,[2]; solvent 2-methoxyethyl ether,—
same,crystal form of the precipitated crystals,[2]; solvent 2-propanol,—
same,crystal form of the precipitated crystals,[2]; solvent 2-propanol:water 80:20,—
same,crystal form of the precipitated crystals,[2]; solvent 2-propanol:water 95:5,—
same,crystal form of the precipitated crystals,"[2]; solvent N,N-dimethylformamide",—
same,crystal form of the precipitated crystals,[2]; solvent N-methylpyrrolidone,—
same,crystal form of the precipitated crystals,[2]; solvent acetone,Form-I
same,crystal form of the precipitated crystals,[2]; solvent acetone:water 20:80,—
same,crystal form of the precipitated crystals,[2]; solvent acetone:water 80:20,—
same,crystal form of the precipitated crystals,[2]; solvent acetone:water 95:5,—
same,crystal form of the precipitated crystals,[2]; solvent acetonitrile,—
same,crystal form of the precipitated crystals,[2]; [6],—
same,crystal form of the precipitated crystals,[2]; [7],—
same,crystal form of the precipitated crystals,[2]; [8],—
same,crystal form of the precipitated crystals,[2]; solvent chlorobenzene,—
same,crystal form of the precipitated crystals,[2]; solvent chloroform,—
same,crystal form of the precipitated crystals,[2]; solvent cyclohexane,—
same,crystal form of the precipitated crystals,[2]; solvent cyclohexanone,—
same,crystal form of the precipitated crystals,[2]; solvent dichloromethane,—
same,crystal form of the precipitated crystals,[2]; solvent dimethyl carbonate,—
same,crystal form of the precipitated crystals,[2]; solvent dimethyl sulfoxide,—
same,crystal form of the precipitated crystals,[2]; solvent ethanol,Form-I
same,crystal form of the precipitated crystals,[2]; [9],Form-I
same,crystal form of the precipitated crystals,[2]; solvent ethanol:water 20:80,—
same,crystal form of the precipitated crystals,[2]; solvent ethyl acetate,—
same,crystal form of the precipitated crystals,[2]; solvent heptane,—
same,crystal form of the precipitated crystals,[2]; solvent isopropyl acetate,—
same,crystal form of the precipitated crystals,[2]; solvent isopropyl ether,—
same,crystal form of the precipitated crystals,[2]; solvent methanol,Form-I
same,crystal form of the precipitated crystals,[2]; solvent methanol:water 80:20,Form-I
same,crystal form of the precipitated crystals,[2]; solvent methanol:water 95:5,—
same,crystal form of the precipitated crystals,[2]; solvent methyl acetate,—
same,crystal form of the precipitated crystals,[2]; solvent methyl ethyl ketone,—
same,crystal form of the precipitated crystals,[2]; solvent methyl isobutyl ketone,—
same,crystal form of the precipitated crystals,[2]; solvent nitromethane,—
same,crystal form of the precipitated crystals,[2]; solvent t-butyl methyl ether,—
same,crystal form of the precipitated crystals,[2]; solvent tetrahydrofuran,—
same,crystal form of the precipitated crystals,[2]; [10],—
same,crystal form of the precipitated crystals,[2]; [11],—
same,crystal form of the precipitated crystals,[2]; solvent toluene,—
same,crystal form of the precipitated crystals,[2]; solvent trifluoroethanol,—
same,crystal form of the precipitated crystals,[2]; solvent water,—
same,crystal form of the precipitated crystals,[3]; solvent acetone,—
same,crystal form of the precipitated crystals,[3]; solvent acetonitrile,—
same,crystal form of the precipitated crystals,[3]; solvent dimethyl sulfoxide,Form-I
same,crystal form of the precipitated crystals,[3]; solvent nitromethane,—
same,Crystal form,"[4]; dissolving solvent 2-methoxyethanol, poor solvent cyclohexane",Form-I
same,Crystal form,"[4]; dissolving solvent 2-methoxyethanol, poor solvent isopropyl acetate",Form-I
same,Crystal form,"[4]; dissolving solvent 2-methoxyethanol, poor solvent t-butyl methyl ether",Form-I
same,Crystal form,"[4]; dissolving solvent 2-methoxyethanol, poor solvent water",—
same,Crystal form,"[4]; dissolving solvent N,N-dimethylformamide, poor solvent 2-propanol",Form-I
same,Crystal form,"[4]; dissolving solvent N,N-dimethylformamide, poor solvent diethyl ether",Form-I
same,Crystal form,"[4]; dissolving solvent N,N-dimethylformamide, poor solvent isopropyl acetate",Form-I
same,Crystal form,"[4]; dissolving solvent N,N-dimethylformamide, poor solvent t-butyl methyl ether",Form-I
same,Crystal form,"[4]; dissolving solvent N,N-dimethylformamide, poor solvent water",Form-I
same,Crystal form,"[4]; dissolving solvent N-methylpyrrolidone, poor solvent 2-propanol",Form-I
same,Crystal form,"[4]; dissolving solvent N-methylpyrrolidone, poor solvent ethyl acetate",Form-I
same,Crystal form,"[4]; dissolving solvent N-methylpyrrolidone, poor solvent toluene",Form-I
same,Crystal form,"[4]; dissolving solvent N-methylpyrrolidone, poor solvent water",Form-I
same,Crystal form,"[4]; dissolving solvent acetone:water 80:20, poor solvent 2-propanol",—
same,Crystal form,"[4]; dissolving solvent acetone:water 80:20, poor solvent water",Form-II
same,Crystal form,"[4]; dissolving solvent dimethyl sulfoxide, poor solvent 2-propanol",Form-I
same,Crystal form,"[4]; dissolving solvent dimethyl sulfoxide, poor solvent diisopropyl ether",—
same,Crystal form,"[4]; dissolving solvent dimethyl sulfoxide, poor solvent ethyl acetate",Form-I
same,Crystal form,"[4]; dissolving solvent dimethyl sulfoxide, poor solvent t-butyl methyl ether",Form-I
same,Crystal form,"[4]; dissolving solvent dimethyl sulfoxide, poor solvent water",—
same,Crystal form,"[4]; dissolving solvent tetrahydrofuran:water 80:20, poor solvent water",Form-I
same,Crystal form,"[4]; dissolving solvent trifluoroethanol, poor solvent cyclohexane",—
same,Crystal form,"[4]; dissolving solvent trifluoroethanol, poor solvent diisopropyl ether",Form-I
same,Crystal form,"[4]; dissolving solvent trifluoroethanol, poor solvent water",—
